Results taken from patent publication US9115012B2, “Method of improving the water quality in aquatic ecosystems” (Kemin Industries, Inc., priority 2010, dated 2015).

Tested on: Vibrio spp. isolated from shrimp pond water
Assay: Disk diffusion on Vibrio isolation agar (zone of inhibition)
Format: cell-based
Conditions: 10 μl on disk, extract of 20 g powder in 100 ml water, chloramphenicol 25 μg/ml, 37° C.
Experimental: In another experiment, the effect of the nut gall extract on the growth of Vibrio spp. isolated from shrimp pond water was tested. The extract was prepared by adding 20 g of nut gall powder into 100 ml of water, soaking for one hour followed by centrifugation. Chloramphenicol (25 μg/ml) was taken as positive control. Vibrio isolation agar was prepared and the agar plates were cooled to room temperature. Sterile disk was placed in the centre of agar plate, after inoculating Vibrio spp. using a sterile cotton swab. 10 μl of extract/antibiotic was added to the disk and incubated at 37° C. in an incubator.

Structure (SMILES): O=C(N[C@H](CO)[C@H](O)c1ccc([N+](=O)[O-])cc1)C(Cl)Cl [Chloramphenicol]
- zone of inhibition at 25 µg/mL: 13 mm
